From patent US10351586B2, “Cytidine derivative dimers and applications thereof” (CHANGZHOU FANGYUAN PHARMACEUTICAL CO., LTD, priority 2014, dated 2019)
Marks after values point to notes of the source that are not given here.

Experiments:
[1] = test system: HCT-116 human colon cancer xenografts; experiment: Tumor growth inhibition of HCT-116 human colon cancer xenografts in nude mice; format: in vivo, Balb/c nude mice; conditions: for Relative tumor proliferation rate (T/C %) / Relative tumor volume (RTV) / Tumor growth inhibition rate (TGI %) / Tumor volume of HCT-116 human colon cancer xenografts: single IP injection (QD×1), D1 and D2 400 mg/kg, D3 350 mg/kg, D4 300 mg/kg; for Tumor volume of HCT-116 human colon cancer xenografts: Mean±SEM
Protocol: 2. Preparation of the test substance was performed by dissolving the test substance using the following solvents:
3. Animal experiments were performed. […] Animals were numbered using their tail number.
4.1 Tumor cells were human HCT-116 colon cancer cells purchased from the Institute of Cell Biology, Chinese Academy of Sciences (Beijing, China). F-12 medium (containing 10% FBS) was used to culture cells in a carbon dioxide incubator at about 37° C., saturated humidity, under 5% CO2 and 95% air. Before inoculation, cells in logarithmic growth phase were collected. After digested by 0.25% trypsin, the cells were washed with PBS once. The cells were resuspended with serum-free medium and counted. Serum-free medium were used for cell resuspension, until the cell concentration was adjusted to about 3×10^7 cell/mL.
4.2 Animal inoculation and grouping were performed.
The diameters (D) of the tumor nodules were measured three times a week with a circle sizer ruler. In addition, the following formula was applied to calculate the volume of the tumor nodules (V): V=[…](D/2)^3 generally for a spherical shape. Evaluation indexes of antitumor activity were tumor growth inhibition rate TGI (%) and relative tumor proliferation rate T/C (%).
The calculation formula of TGI was: TGI (%)=(Vcontrol−VTreatment)/Vcontrol)×100%. The relative tumor volume (RTV) was calculated by: RTV=Vt/V0, where V0 is the tumor volume at the time of group administration, and Vt is the tumor volume at the time of measurement.
The mice were weighed 3 times every week.
4.5 Data and statistical analysis were provided.

[2] = Body weight / toxicity of a single intraperitoneal injection in HCT-116 colon tumor-bearing nude mice; conditions: D3 350 mg/kg, D4 300 mg/kg; for Average rate of weight change of the animals / Average weight of the animals: single IP injection (QD×1), D1 and D2 400 mg/kg; for Average weight of the animals: Mean±SEM
[3] = D1 400 mg/kg Day 7, D2 400 mg/kg Day 9, D3 350 mg/kg Day 11, D4 300 mg/kg Day 11, single IP

Structure (SMILES): CCCCOC(=O)Nc1ccn(C2OC(COC(=O)CCC(=O)OC[C@H]3O[C@@H](n4ccc(NC(=O)OCc5ccccc5)nc4=O)C(F)(F)[C@@H]3O)C(O)C2(F)F)c(=O)n1 (stereo in doubt) [Compound D4, 1-O-(4-N-(Benzyloxycarbonyl)-gemcitabine)-4-O-(4-N-(n-Butoxycarbonyl)-gemcitabine)-succinate]
- Relative tumor proliferation rate, minimum [1, 3]: 25.94%
- Tumor inhibition rate, maximum [1, 3]: 97.32%
- Relative tumor proliferation rate (T/C %) ([1]; Day 0): 0.00%
- Relative tumor volume (RTV) ([1]; Day 0): 1.00
- Tumor growth inhibition rate (TGI %) ([1]; Day 0): 0.00%
- Tumor volume of HCT-116 human colon cancer xenografts ([1]; Day 0): 44.09 ± 5.99** mm^3
- Relative tumor proliferation rate (T/C %) ([1]; Day 1): 77.07%
- Relative tumor volume (RTV) ([1]; Day 1): 1.12 ± 0.12
- Tumor growth inhibition rate (TGI %) ([1]; Day 1): 71.17%
- Tumor volume of HCT-116 human colon cancer xenografts ([1]; Day 1): 52.03 ± 12.91** mm^3
- Relative tumor proliferation rate (T/C %) ([1]; Day 2): 66.48%
- Relative tumor volume (RTV) ([1]; Day 2): 1.12 ± 0.12
- Tumor growth inhibition rate (TGI %) ([1]; Day 2): 76.55%
- Tumor volume of HCT-116 human colon cancer xenografts ([1]; Day 2): 52.03 ± 12.91** mm^3
- Relative tumor proliferation rate (T/C %) ([1]; Day 4): 43.31%
- Relative tumor volume (RTV) ([1]; Day 4): 0.79 ± 0.11
- Tumor growth inhibition rate (TGI %) ([1]; Day 4): 87.42%
- Tumor volume of HCT-116 human colon cancer xenografts ([1]; Day 4): 37.37 ± 10.46** mm^3
- Relative tumor proliferation rate (T/C %) ([1]; Day 7): 31.86%
- Relative tumor volume (RTV) ([1]; Day 7): 0.55 ± 0.10
- Tumor growth inhibition rate (TGI %) ([1]; Day 7): 94.11%
- Tumor volume of HCT-116 human colon cancer xenografts ([1]; Day 7): 25.46 ± 8.17** mm^3
- Relative tumor proliferation rate (T/C %) ([1]; Day 9): 30.55%
- Relative tumor volume (RTV) ([1]; Day 9): 0.55 ± 0.12
- Tumor growth inhibition rate (TGI %) ([1]; Day 9): 96.19%
- Tumor volume of HCT-116 human colon cancer xenografts ([1]; Day 9): 22.50 ± 5.31** mm^3
- Relative tumor proliferation rate (T/C %) ([1]; Day 11): 25.94%
- Relative tumor volume (RTV) ([1]; Day 11): 0.69 ± 0.20
- Tumor growth inhibition rate (TGI %) ([1]; Day 11): 97.32%
- Tumor volume of HCT-116 human colon cancer xenografts ([1]; Day 11): 26.19 ± 5.79** mm^3
- Relative tumor proliferation rate (T/C %) ([1]; Day 14): 32.83%
- Relative tumor volume (RTV) ([1]; Day 14): 1.81 ± 0.54
- Tumor growth inhibition rate (TGI %) ([1]; Day 14): 95.12%
- Tumor volume of HCT-116 human colon cancer xenografts ([1]; Day 14): 70.28 ± 18.37** mm^3
- Relative tumor proliferation rate (T/C %) ([1]; Day 16): 37.96%
- Relative tumor volume (RTV) ([1]; Day 16): 3.29 ± 0.82
- Tumor growth inhibition rate (TGI %) ([1]; Day 16): 92.12%
- Tumor volume of HCT-116 human colon cancer xenografts ([1]; Day 16): 142.77 ± 49.34** mm^3
- Relative tumor proliferation rate (T/C %) ([1]; Day 18): 26.76%
- Relative tumor volume (RTV) ([1]; Day 18): 5.11 ± 1.12
- Tumor growth inhibition rate (TGI %) ([1]; Day 18): 88.56%
- Tumor volume of HCT-116 human colon cancer xenografts ([1]; Day 18): 228.58 ± 76.92** mm^3
- Relative tumor proliferation rate (T/C %) ([1]; Day 21): 37.28%
- Relative tumor volume (RTV) ([1]; Day 21): 8.73 ± 1.39
- Tumor growth inhibition rate (TGI %) ([1]; Day 21): 84.66%
- Tumor volume of HCT-116 human colon cancer xenografts ([1]; Day 21): 375.06 ± 86.27 mm^3
- Relative tumor proliferation rate (T/C %) ([1]; Day 23): 50.04%
- Relative tumor volume (RTV) ([1]; Day 23): 9.89 ± 1.30
- Tumor growth inhibition rate (TGI %) ([1]; Day 23): 82.19%
- Tumor volume of HCT-116 human colon cancer xenografts ([1]; Day 23): 420.73 ± 76.08 mm^3
- Relative tumor proliferation rate (T/C %) ([1]; Day 25): 53.68%
- Relative tumor volume (RTV) ([1]; Day 25): 11.61 ± 1.51
- Tumor growth inhibition rate (TGI %) ([1]; Day 25): 80.98%
- Tumor volume of HCT-116 human colon cancer xenografts ([1]; Day 25): 491.29 ± 83.78 mm^3
- Relative tumor proliferation rate (T/C %) ([1]; Day 28): 69.72%
- Relative tumor volume (RTV) ([1]; Day 28): 14.73 ± 2.18
- Tumor growth inhibition rate (TGI %) ([1]; Day 28): 77.39%
- Tumor volume of HCT-116 human colon cancer xenografts ([1]; Day 28): 608.08 ± 85.37 mm^3
- Relative tumor proliferation rate (T/C %) ([1]; Day 30): 76.91%
- Relative tumor volume (RTV) ([1]; Day 30): 19.08 ± 2.98
- Tumor growth inhibition rate (TGI %) ([1]; Day 30): 72.14%
- Tumor volume of HCT-116 human colon cancer xenografts ([1]; Day 30): 781.78 ± 105.33 mm^3
- Inhibition of growth of HCT-116 human colon cancer xenografts (in words) ([1]; single IP injection, 300-400 mg/kg): higher tumor inhibition rates
- Average rate of weight change of the animals ([2]; Day 0): 0.00%
- Average weight of the animals ([2]; Day 0): 20.15 ± 0.29 g
- Average rate of weight change of the animals ([2]; Day 1): −1.17 ± 1.27%
- Average weight of the animals ([2]; Day 1): 19.90 ± 0.19 g
- Average rate of weight change of the animals ([2]; Day 2): −8.18 ± 1.56 %
- Average weight of the animals ([2]; Day 2): 18.48 ± 0.2 g
- Average rate of weight change of the animals ([2]; Day 4): −5.33 ± 1.78%
- Average weight of the animals ([2]; Day 4): 19.07 ± 0.36 g
- Average rate of weight change of the animals ([2]; Day 7): −1.43 ± 1.92%
- Average weight of the animals ([2]; Day 7): 19.85 ± 0.38 g
- Average rate of weight change of the animals ([2]; Day 9): 2.91 ± 0.55 %
- Average weight of the animals ([2]; Day 9): 20.73 ± 0.29 g
- Average rate of weight change of the animals ([2]; Day 11): 4.47 ± 0.52 %
- Average weight of the animals ([2]; Day 11): 21.05 ± 0.31 g
- Average rate of weight change of the animals ([2]; Day 14): 3.72 ± 0.73 %
- Average weight of the animals ([2]; Day 14): 20.90 ± 0.34 g
- Average rate of weight change of the animals ([2]; Day 16): 6.62 ± 0.79 %
- Average weight of the animals ([2]; Day 16): 21.48 ± 0.34 g
- Average rate of weight change of the animals ([2]; Day 18): 8.99 ± 1.38 %
- Average weight of the animals ([2]; Day 18): 21.95 ± 0.27 g
- Average rate of weight change of the animals ([2]; Day 21): 7.41 ± 1.37 %
- Average weight of the animals ([2]; Day 21): 21.63 ± 0.30 g
- Average rate of weight change of the animals ([2]; Day 23): 9.37 ± 1.82 %
- Average weight of the animals ([2]; Day 23): 22.03 ± 0.43 g
- Average rate of weight change of the animals ([2]; Day 25): 10.69 ± 2.14 %
- Average weight of the animals ([2]; Day 25): 22.30 ± 0.49 g
- Average rate of weight change of the animals ([2]; Day 28): 8.62 ± 2.68%
- Average weight of the animals ([2]; Day 28): 21.88 ± 0.59 g
- Average rate of weight change of the animals ([2]; Day 30): 9.36 ± 2.21%
- Average weight of the animals ([2]; Day 30): 22.03 ± 0.53 g
- Toxicity in tumor-bearing mice (in words) ([2]; single IP injection, D2 400 mg/kg, judged from body weight versus control): no toxicity
